Reference: patent US10335382B2, “Use of hydrogen sulfide synthesis inhibitors for cancer therapy” (THE BOARD OF REGENTS OF THE UNIVERSITY OF TEXAS SYSTEM, priority 2013, dated 2019)
pIC50: −log10 of the molar value. “Also recorded” adds a separate entry of the source. Where two headings read alike, the source gives them in different places.

What was measured:
[1] = test system: peritumor microvessel blood flow; test: Tumor microvascular blood flow (laser Doppler); format: in vivo, mice; conditions: intratumoral injection; AOAA 9 mg/kg, L-cysteine 1 mg/kg
Experimental: FIG. 6. L-Cysteine increases, while AOAA reduces microvessel blood flow in tumor bearing mice. Tumor bearing mice were anesthetized by i.p. injection of ketamine-xylazine and a laser Doppler (PeriFlux system 5000) was placed on top of the tumor for microvessel blood flow measurements. After a stabilization period, L-Cys or AOAA were injected subcutaneously in proximity of the tumor. […] Data represent mean±SEM of n=6 determinations.
Skin microvascular blood flow was measured using a PeriFlux 5000 laser-Doppler flowmeter. Mice bearing PTX were anesthetized by ketamine-xylazine (i.p.). The laser-Doppler probe was placed on top of the tumors and a stable basal signal was recorded. Changes in the subcutaneous microcirculatory perfusion were detected following intratumoral injections of either L-cysteine (1 mg/kg) or AOAA (9 mg/kg).

HCT116 cells = test: HCT116 cell migration and invasion (Transwell); format: cell-based, human; conditions: AOAA 1 mM, fibroblast-conditioned media
Experimental: FIG. 3. […] (A, B) The lentiviral shRNA vectors targeting CBS (shCBS) and CSE (shCSE) were transfected into HCT116 cells. A non-targeting sequence was used as control (shNT). […] Following CBS and CSE silencing, cells were seeded at the density of 3000 cells/well in xCELLigence plates and proliferation was monitored for 36 hours. […] The NCM356 cells were infected overnight with a CBS expressing adenovirus (Ad-CBS, 10 multiplicity of infection (MOI)) or its control, a green fluorescent protein (Ad-GFP). The culture media was then replaced and cells were seeded in XCelligence plates at 3000 cells/well. Cell proliferation was then measured real-time over 36 hours. […] (H, I) The effect of AOAA and NaHS was also tested on HCT116 cell migration (H) and invasion (I). Cells were pretreated either with vehicle or AOAA (1 mM) and seeded in serum-free DMEM (0.1% albumin) in the upper chamber of a trans-well insert uncoated (migration assay) or coated with growth factor reduced matrigel (invasion assay). Migration and invasion were stimulated by fibroblast-conditioned media in the lower chamber for 6 and 24 hours, respectively. […] (J) In a co-culture of human endothelial cells (EAhy926) and colon cancer cells (HCT116), HCT 116 cells were seeded in the lower chamber of a trans-well insert and cultured to confluence. Endothelial cells were then seeded into the upper chamber in serum-free DMEM and allowed to migrate for 4 hours at 37° C. […] Western blots are representative of at least three independent experiments; proliferation/migration/invasion assays and H2S measurements represent mean±SEM of n=3 determinations.
(§1) Cellular migration and invasion assays were performed as described (Chao et al. (1996) Cancer Res. 56:4811-19). Briefly, 10^5 cells were suspended in serum-free media containing 0.1% BSA and then added to 6.5 mm Transwell chambers ([…]) uncoated (migration assay) or coated with a thin layer (45 μl) of growth factor reduced matrigel (cell invasion assay). Cells were allowed to migrate toward the bottom chamber containing fibroblast (NIH-3T3 cells) conditioned media at 37° C. for 6 or 24 h for cell migration and invasion, respectively. Migrated and invaded cells were then fixed in Carson's fixative, stained in 0.33% toluidine blue and quantified by visual counting. For the HCT116-EAhy926 co-culture experiment, the cancer cell line was grown to confluence in the bottom wells of the transwell chambers and then endothelial cell migration was assessed (Coletta et al. (2012) Proc Natl Acad Sci USA. 109:9161-66).

HCT116 colon cancer cell [2] = conditions: cell-based assays (Szabo et al. 2013); cited from earlier work
HCT116 colon cancer cell [3] = test: HCT116 colon cancer cell proliferation (xCELLigence); format: cell-based, human; conditions: Homo sapiens, HCT-116
Experimental: Cellular proliferation assays are conducted in HCT116 CRC cells in vitro, using the Roche XCelligence method. Concentration-response curves with the various AOAA analogs are prepared (concentration range: 1, 3, 10, 100, 300 and 600 μM). AOAA is used as the reference control, which, according to preliminary data, has an IC50 of approximately 300 μM. Control proliferation studies in the non-carcinogenic colonic epithelial cell line NCM356 are used to confirm cancer-cell selectivity. Since the NCM356 cells contain low levels of CBS, based on previous studies it is expect that AOAA (and its prodrugs) will only exert modest antiproliferative effects in these cells. Proliferation-inhibitory effects of the AOAA prodrugs in NCM356 cells indicate CBS-independent pharmacological actions. A collection of human colorectal tumor tissue samples (and surrounding non-cancerous tissue) are used to test the conversion of the AOAA prodrugs to AOAA in a number of cancer samples.
as §1, with “109:9161-66). For assessment of colon cell proliferation, the xCELLigence system (Roche) was used (Szabo and Papapetropoulos (2011) Br J Pharmacol. 164:853-65).” for “109:9161-66).”
For assessment of cell proliferation, the xCELLigence system (Roche) was used. Briefly, HCT116 cells were cultured until approximately 70% confluence. Cells were then detached by Trypsin-EDTA and resuspended in fresh culture media at a concentration of 30,000 cells/ml. 200 μl of cell suspension was added to each well (6,000 cells/well) of a E-plate 96, a specially designed 96-well microtiter plate containing interdigitated microelectrodes to non-invasively monitor the cell proliferation by measuring the relative change in the electrical impedance of the cell monolayer, a unitless parameter named cell index (CI). Cells were then treated with YD02-51 and proliferation was monitored for 48 hours.

SMILES: NOCC(=O)O [AOAA, aminooxyacetic acid]
- peritumor / skin microvessel blood flow [1]: significantly reduced; also recorded: marked decrease
- HCT116 cell migration (HCT116 cells; 6 hours): markedly reduced
- HCT116 cell invasion (HCT116 cells; matrigel, 24 hours): markedly reduced
- concentrations at which antiproliferative effects and effects on cellular energetics manifest in cell-based assays (HCT116 colon cancer cell [2]): higher (millimolar) concentrations
- inhibition at 300 µM (HCT116 colon cancer cell [3]; 300 μM, HCT116): 21%
- IC50 (HCT116 colon cancer cell [3]; read-out: IC50 (μM), inhibition of HCT116 colon cancer cell proliferation): 1780 µM
- pIC50 (HCT116 colon cancer cell [3]; reference control, preliminary data, XCelligence, read-out: IC50, HCT116 proliferation (preliminary data)): ~3.52
